# Test results reported in PubChem BioAssay (NCI).
# “And” between values parts separate entries of the source, which are not always exact repeats. Equal entries are not always repeated.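 Briefly, cells in 96-well plates were exposed to five compound concentrations for 48 h, and endpoints were estimated by linear interpolation. Abbreviation: GI50, concentration required for 50% inhibition of growth. TGI marks complete inhibition of growth.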
# What was measured:
# Test in all cases: inhibition of tumour cell growth, NCI panel, 48 h
# COLO 205 colon = system: COLO 205 colon
# EKVX NSCLC = system: EKVX NSCLC
# HCT-15 colon = system: HCT-15 colon
# IGROV1 ovarian = system: IGROV1 ovarian
# NCI-H522 lung = system: NCI-H522 lung
# OVCAR-3 ovarian = system: OVCAR-3 ovarian
# OVCAR-4 ovarian = system: OVCAR-4 ovarian
# SF-295 CNS = system: SF-295 CNS
# BT-549 breast = system: BT-549 breast
# MCF7 breast = system: MCF7 breast
SMILES,TGI (COLO 205 colon),TGI (EKVX NSCLC),TGI (HCT-15 colon),TGI (IGROV1 ovarian),TGI (NCI-H522 lung) [µM],TGI (OVCAR-3 ovarian),TGI (OVCAR-4 ovarian),TGI (SF-295 CNS) [µM],GI50 (BT-549 breast) [µM],TGI (BT-549 breast) [µM],GI50 (COLO 205 colon) [µM],GI50 (EKVX NSCLC) [µM],GI50 (IGROV1 ovarian) [µM],GI50 (MCF7 breast) [µM],TGI (MCF7 breast),GI50 (NCI-H522 lung) [µM],GI50 (OVCAR-3 ovarian) [µM],GI50 (SF-295 CNS) [µM],GI50 (HCT-15 colon) [µM],GI50 (OVCAR-4 ovarian) [µM]
O=c1cccccc1NCCOCCNc1cccccc1=O,> 100 µM,> 100 µM,> 100 µM,> 100 µM,> 100,> 100 µM,> 100 µM,> 100,,,,,,,,,,,,
Oc1ccccc1-c1nn(CNc2cccc(Cl)c2)c(=S)o1,> 100 µM,> 100 µM,,> 100 µM,> 100,> 100 µM,,> 100,94.4,> 100,53.8,67.2,81.5,37.9,> 100 µM,> 100,30.4,> 100,,
COc1ccc(C(=O)C(c2ccc(OC)cc2)C2(O)C(=O)Nc3ccccc32)cc1 (stereo not given),,> 100 µM,> 100 µM,> 100 µM,> 100,> 100 µM,,> 100,,,,,,,,,,,,
O=c1/c(=C/c2cccc([N+](=O)[O-])c2)sc2nc3ccccc3n12,,> 100 µM,> 100 µM,,,,> 100 µM,,,,,,,,,,,,,
Cc1cc(O)cc2oc(=O)c3c(O)cc(O)cc3c12,66.7 µM,75.1 µM,45.4 µM,74.7 µM,30.4,58.4 µM,> 100 µM,63.6,,,,,,,,,,,,
COC(=O)C1=C(O)c2cc(OC)c(OC)c(OC)c2[C@H](c2cc(OC)c(OC)c(OC)c2)C1C(=O)OC (stereo not given in full),37.9 µM,> 100 µM,> 100 µM,> 100 µM,43.5,58.4 µM,> 100 µM,98.1,,,,,,,,,,,,
CCOC(=O)/C(O)=C(/c1n[nH]c(=O)c2ccccc12)[N+](=O)[O-],> 100 µM,> 100 µM,> 100 µM,> 100 µM,> 100,> 100 µM,> 100 µM,> 100,,,,,,,,,,,,
CC1(C)COC(C23C4C5C2C2C3C4C52I)=N1 (stereo not given),> 100 µM,> 100 µM,> 100 µM,> 100 µM,,> 100 µM,> 100 µM,> 100,,,,,,,,,,,,
[O-]c1c2c(nn1-c1ccccc1)c1ccccc1c[n+]2Cc1ccccc1,> 100 µM,> 100 µM,> 100 µM,> 100 µM,> 100,> 100 µM,> 100 µM,> 100,,,,,,,,,,,,
CC(=O)[CH-]C(=O)c1ccccc1.CC(=O)[CH-]C(=O)c1ccccc1.CC[O-].CC[O-].[Zr+4],> 100 µM,> 100 µM,> 100 µM,> 100 µM,> 100,> 100 µM,> 100 µM,> 100,,,> 100,91.6,> 100,,,> 100,> 100,> 100,> 100,> 100
CCCCCCCCCCCCCC(=O)O[C@H]1CC[C@H](NC(=O)[C@H](OC)[C@H](O)[C@@H](O)[C@H](O)/C=C/C(C)C)C(=O)NC1,0.00374 µM and 0.0154 µM,36.8 µM and 23.4 µM,21.1 µM and 90.7 µM,8.51 µM and 2.71 µM,,10.5 µM and 17.9 µM,29 µM and 31.3 µM,,12.8,51.2,,,,0.00512,8.64 µM and 22.6 µM,,0.00435,,,0.00276
